# Measured values from PMC6934184, “Selective DNA-PKcs inhibition extends the therapeutic index of localized radiotherapy and chemotherapy” (The Journal of Clinical Investigation, 2019).
# Target: T1, EGFR (ErbB1) T790M (Homo sapiens, UniProt P00533, T790M)
# T1 construct: purchased Thermo Fisher Scientific (Life Technologies) SelectScreen
# Test: SelectScreen Z'LYTE
# Format: biochemical
# In short: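 Percent values come from Thermo SelectScreen profiling of NU5455, combining activity and binding assays. CSF1R was run in Z'LYTE format at Km app ATP, and CAMK1 in Adapta format with ATP listed at 10.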
# T1 sequence (P00533 25-1210 T790M): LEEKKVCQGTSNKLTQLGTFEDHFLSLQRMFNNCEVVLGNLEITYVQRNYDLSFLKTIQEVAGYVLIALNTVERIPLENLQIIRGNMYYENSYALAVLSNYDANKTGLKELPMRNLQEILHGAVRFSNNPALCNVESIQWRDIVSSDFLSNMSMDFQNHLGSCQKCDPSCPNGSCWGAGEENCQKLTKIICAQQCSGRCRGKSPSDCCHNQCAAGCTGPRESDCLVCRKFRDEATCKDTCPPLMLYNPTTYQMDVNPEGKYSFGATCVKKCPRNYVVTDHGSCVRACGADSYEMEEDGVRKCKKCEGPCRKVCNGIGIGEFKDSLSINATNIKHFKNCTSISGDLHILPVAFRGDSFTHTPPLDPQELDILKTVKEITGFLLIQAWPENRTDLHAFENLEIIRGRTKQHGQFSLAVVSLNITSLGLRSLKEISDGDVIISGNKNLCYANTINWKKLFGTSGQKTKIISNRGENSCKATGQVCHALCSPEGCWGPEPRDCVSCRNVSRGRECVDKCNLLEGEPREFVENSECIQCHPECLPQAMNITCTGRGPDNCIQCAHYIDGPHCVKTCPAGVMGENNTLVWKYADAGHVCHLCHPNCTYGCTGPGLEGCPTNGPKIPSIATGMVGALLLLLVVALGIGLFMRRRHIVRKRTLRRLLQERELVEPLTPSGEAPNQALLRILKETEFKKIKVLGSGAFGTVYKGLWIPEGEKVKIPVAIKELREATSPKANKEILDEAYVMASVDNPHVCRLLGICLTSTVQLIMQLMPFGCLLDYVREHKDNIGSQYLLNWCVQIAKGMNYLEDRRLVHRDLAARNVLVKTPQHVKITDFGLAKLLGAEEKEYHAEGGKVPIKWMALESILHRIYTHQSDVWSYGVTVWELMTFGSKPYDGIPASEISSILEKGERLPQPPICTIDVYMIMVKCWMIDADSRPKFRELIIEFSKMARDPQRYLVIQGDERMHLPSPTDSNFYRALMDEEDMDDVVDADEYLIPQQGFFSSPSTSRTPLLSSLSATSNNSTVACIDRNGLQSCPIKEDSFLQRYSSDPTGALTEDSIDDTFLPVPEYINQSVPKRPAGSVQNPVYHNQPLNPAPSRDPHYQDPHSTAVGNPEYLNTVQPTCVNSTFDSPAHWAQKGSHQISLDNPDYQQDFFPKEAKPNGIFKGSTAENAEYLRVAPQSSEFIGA
compound,measurement,value
CN(C(=O)CN1CCOCC1)c1ccc2sc3c(-c4cccc5c(=O)cc(N6CC7CCC(C6)O7)oc45)cccc3c2c1 [NU5455],inhibition at 1 µM,-3.3%
